Data published in patent US20180228871A1, “METHODS FOR THE MOBILIZATION AND USE OF T-CELLS WITH ENHANCED RECONSTITUTION POTENTIAL AND LIFE-SPAN” (GlycoMimetics, Inc., priority 2015, published 2018).

B1: G-CSF: granulocyte-colony stimulating factor, a glycoprotein; Example I used Filgastim (Amgen) (protein, UniProt P09919 31-207, looked up)
Granulocyte …: TPLGPASSLPQSFLLKCLEQVRKIQGDGAALQEKLVSECATYKLCHPEELVLLGHSLGIPWAPLSSCPSQALQLAGCLSQLHSGLFLYQGLLQALEGISPELGPTLDTLQLDVADFATTIWQQMEELGMAPALQPTQGAMPAFASAFQRRAGGVLVASHLQSFLEVSYRVLRHLAQP
modifications: filgrastim
B2: Pegfilgrastim: Filgrastim with pegylation (20 kD-PEG) modification on the N terminal (protein, UniProt P09919 31-207, looked up)
Granulocyte …: B1 Granulocyte …
modifications: N-terminal 20 kDa PEG; pegfilgrastim
B3: Filgrastim: recombinant G-CSF expressed by E. coli, 175 amino acids, 19 kD, amino terminus methionine (protein, UniProt P09919 31-207, looked up)
Granulocyte …: B1 Granulocyte …
modifications: filgrastim, N-terminal Met

Columns and labels:
HSC = details: transient administration; cited from earlier work
HSCs = details: E-selectin inhibition during HSC mobilization with G-CSF; cited from earlier work
CD8+CD62Lhi CD44+ cells = assay: G-CSF mobilization of blood leukocytes and T-cell subsets with GMI-1271 co-administration (flow cytometry of blood); assay type: in vivo, mice (C57bl/6); details: C57bl/6 mice; for CD44+CD62hi CD4+ T-cells per uL blood: G-CSF administration, with or without GMI-1271 co-administration, FIG. 4B
Protocol: The following classification was used in the following experiments. Of all the CD8+ cells the Tnaive, population is CD62hi […]; the TCM/SCM population is CD62hi CD44+; and the TEM population is CD44+CD62^− population. An increase in the TCM/SCM mouse cell population is observed below (see FIGS. 1 through 6).
Cohorts of mice (C57bl/6 adult 10 week old males) were administered G-CSF (Filgastim, Amgen) at 125ug/kg/injection bidaily subcutaneous injections for a total of 72 hours before sacrifice (with non-mobilised control group #1 receiving saline injection instead).
The E-selectin mimetic antagonist GMI-1271 (bidaily intraperitoneal injections at 40 mg/kg/injection), was co-administered to these mice at specified timepoints prior to sacrifice with a final GMI-1271 injection always occurring exactly 1 hour prior to sacrifice. Generally all mice received injections at 9 am and 6 pm every day with n=4 per group. The injection groups are outlined in FIG. 1 and are detailed below.
The mouse groups were: Group 1. non-mobilised control, Group 2. G-CSF alone control, Group 3. 14 hours GMI-1271, Group 4. 24 hours GMI-1271, Group 5. 48 hours GMI-1271, Group 6. 72 hours GMI-1271
After 3 days (72 hours) G-CSF administration mice were euthanised administration and heparinised blood collected by cardiac puncture. Total blood leukocytes counts were enumerated using an automated haematological cell counter (Beckman-Coulter KX-21), For flow cytometry, red cells were first lysed using ammonium lysis then blood leukocytes washed in phosphate buffered saline (PBS) containing 2% fetal calf serum and incubated on ice in the presence of excess FcBlock (CD16/CD32 hybridoma 2.4G2 supernatant to block endogenous Fc receptors) following the methodology in Winkler et al., Nature Medicine 2012. Cells were stained using the antibodies CD4-pacific blue, CD8-peCY7, CD62L-BV605, CD44-AF700 at a final concentration of approx 5 million leukocytes per 100 uL volume containing 0.5 ug of each of the above conjugated monoclonal antibodies. All conjugated antibodies were purchased from Biolegend, CA. After 40 minutes incubation on ice, cells were washed to remove excess antibody (by addition of 1 mL PBS, centrifugation at 370×g for 5 minutes at 4 C, removal of supernatant and resuspension of pellet in 100 uL PBS with 2% fetal calf serum). Flow cytometry of cells was performed on the 8 colour CYAN (Beckman Coulter) using unstained blood and single colour controls to set voltages and gating strategy.
CD8+ Tcell subsets were divided based on CD62 and CD44 staining. With CD8+ naive T cells being CD62hi CD44−, CD8+T CM/SCM cells being CD62hi CD44+ double positive and TEM being CD44+ and CD62 negative following routine methodology.
Data was later analysed using the Flow Jo software and collated in excel software. Figures and statistics were by ANOVA using prism software.

CCR7+ cells = assay: Mobilization of CCR7 cells by G-CSF and GMI-1271: PBMC counts and marker-positive cells by flow cytometry; assay type: in vivo, Mouse; details: for CCR7 Cells/mL(10^5): IP qdX3, blood PBMC
Protocol: (§1) 1) Test Animals: • 1. Species: Mouse • 2. Strain: Balb/C and C57BV6 • 3. Age and gender 7-9 weeks, Female • 4. Source: Harlan Laboratories • 5. Total number: 25
(§2) G-CSF and GM-1271 in powder form. The test agents were reconstituted with saline 600 μg of G-CSF was dissolved in 6.5 mL of sterile saline giving a concentration of 92.307 μg/mL. Animals were administered with 0.1 mL of dose solution per time point giving the dose concentration for G-CSF was 9.23 μg per mouse per time point.
(§3) 70 mg of GM-1271 was reconstituted with 7 mL of sterile saline giving a concentration of 10 mg/mL. Animals were administered with 0.1 mL of dose solution per time point giving the dose concentration for GM-1271 was 1 mg per mouse per time point.
(§4) • To purify PBMCs, red blood cells (RBCs) in the whole blood were lysed using ACK Lysing Buffer (Life Technologies, A1049201). Whole blood was mixed with ACK Lysing Buffer at a 1: 25 ratio and incubated at room temperature on shaker for 5 min. The cells were centrifuged at 350 g for 7 min and the supernatant was discarded. The purified PBMCs were suspended in PBS containing 2% FBS. Cell counts were performed, pelleted at 250×g for 10 minutes and suspended in 5 ml HBSS containing containing Ca2+ and Mg2+(Life Technologies catalog #14025-092) plus 0.05% bovine serum albumin (BSA) to […] for antibody staining.
(§5) • Add 100 ul cells (2-3×10^5 cells) per tube (5 mL polypropylene round-bottom tubes (BD Falcon tubes #352063, VWR catalog #60819-728). Add indicated amounts of Alexa Fluor 488® labeled antibodies as indicated in Table 3 and immediately place on ice. • Place tubes at 4° C. for 1 hour then add 2 mL cold HBSS/BSA to each tube and pellet cells 250×g for 10 minutes. Pour off supernatant and suspend the cell pellet in 1 mL cold HBSS/BSA. Pellet cells 250×g for 10 minutes, pour off supernatant, and suspend cell pellet in 250 microliters HBSS/BSA. Add 250 microliters 2% formaldehyde (Polysciences, Inc. catalog #04018, 10% ultrapure, EM grade, methanol-free). Proceed to flow cytometry.
(§6) • Fluorescence was acquired via blue laser excitation at 488 nm with emission at 530 nm using preset lasers equipped on the Attune@ NxT Accoustic Focusing Cytometer (Life Technologies). 2×104 events were collected for each sample and analyzed with the use of the Attune® NxT Cytometric Software v2.1. Results were recorded as median fluorescent intensity, % cells positive for a given marker, and as cell concentration of expressing the specific marker per mL.
(§7) These experiments were done in both Balb/c (top table) and BL6 (bottom table) mouse strains.

[1] = as above; assay type: in vivo, Mouse; details: IP qdX3, blood PBMC
Protocol: as §1, §2, §3, §4, §5, §6, §7

[2] = in vivo; cited from earlier work

Row | Molecule | CD44+CD62hi CD4+ T-cells per uL blood (CD8+CD62Lhi CD44+ cells) | CCR7 Cells/mL(10^5) (CCR7+ cells; BL6 mice (bottom table)) | CCR7 Cells/mL(10^5) (CCR7+ cells; Balb/c mice (top table)) | CD4 Cells/mL(10^5) ([1]; BL6 mice (bottom table)) | CD8 Cells/mL(10^5) ([1]; BL6 mice (bottom table)) | CD44 Cells/mL(10^5) ([1]; BL6 mice (bottom table)) | CD62L Cells/mL(10^5) ([1]; BL6 mice (bottom table)) | Total cells/mL (10^6 + SD) ([1]; BL6 mice (bottom table)) | CD4 Cells/mL(10^5) ([1]; Balb/c mice (top table)) | CD8 Cells/mL(10^5) ([1]; Balb/c mice (top table)) | CD44 Cells/mL(10^5) ([1]; Balb/c mice (top table)) | CD62L Cells/mL(10^5) ([1]; Balb/c mice (top table)) | Total cells/mL (10^6 + SD) ([1]; Balb/c mice (top table)) | half-life [2] [h] | further results
1 | C[C@@H]1O[C@@H](O[C@@H]2[C@@H](NC(=O)c3cc(=O)[nH]c(=O)[nH]3)C[C@@H](C(=O)NCCNC(=O)COCCOCC(=O)Nc3cc(S(=O)(=O)O)cc4cc(S(=O)(=O)O)cc(S(=O)(=O)O)c34)C[C@H]2O[C@@H]2O[C@H](CO)[C@H](O)[C@H](O[C@@H](CC3CCCCC3)C(=O)O)[C@H]2OC(=O)c2ccccc2)[C@@H](O)[C@H](O)[C@@H]1O [GMI-1070] | – | – | – | – | – | – | – | – | – | – | – | – | – | – | HSC self-renewal (HSC): promotes HSC self-renewal
2 | CC[C@H]1C[C@@H](C(=O)NCCNC(=O)CCOCCOCCOCCOCCOCCOCCOCCOCCOCCOCCOCCOC)C[C@@H](O[C@@H]2O[C@H](CO)[C@H](O)[C@H](O[C@@H](CC3CCCCC3)C(=O)[O-])[C@H]2NC(C)=O)[C@@H]1O[C@@H]1O[C@@H](C)[C@@H](O)[C@@H](O)[C@@H]1O.[Na+] [GMI-1271] | does not appear to boost their numbers in blood | 0.23 10^5 cells/mL | 1.68 10^5 cells/mL | 0.43 10^5 cells/mL | 1.74 10^5 cells/mL | 3.56 10^5 cells/mL | 0.19 10^5 cells/mL | 1.89 ± 0.40 10^6 cells/mL | 1.56 10^5 cells/mL | 0.49 10^5 cells/mL | 4.76 10^5 cells/mL | 0.74 10^5 cells/mL | 1.01 ± 0.46 10^6 cells/mL | – | reconstitution potential of mobilized HSCs (HSCs): ~25 fold; Total leukocytes per uL blood, increase over G-CSF 3 days alone (CD8+CD62Lhi CD44+ cells; 24 hr administration of GMI-1271 with 72 h G-CSF, FIG. 2): ~1.5 fold; CD44+CD62hi CD8+ Tcells per uL blood (CD8+CD62Lhi CD44+ cells; 24 hrs GMI-1271 co-administration with G-CSF, FIG. 5B): significantly increased; CD4+ Tcells per uL blood (CD8+CD62Lhi CD44+ cells; G-CSF with GMI-1271 co-administration, FIG. 4A): no change; CD8+ Tcells per uL blood (CD8+CD62Lhi CD44+ cells; G-CSF with GMI-1271 co-administration, FIG. 5A): no changes; Total T-cells per uL blood (CD4+ and CD8+ combined) (CD8+CD62Lhi CD44+ cells; GMI-1271 co-administration with G-CSF, FIG. 3): No change; mobilization of CCR7+ cells (CCR7+ cells; addition of GMI-1271 to G-CSF, both Balb/c and BL6 strains): increases the mobilization of CCR7+ cells
3 | B1 | appear to be decreased | 0.60 10^5 cells/mL | 4.00 10^5 cells/mL | 1.10 10^5 cells/mL | 10.00 10^5 cells/mL | 12.65 10^5 cells/mL | 0.09 10^5 cells/mL | 5.98 ± 2.25 10^6 cells/mL | 3.43 10^5 cells/mL | 1.32 10^5 cells/mL | 14.88 10^5 cells/mL | 1.59 10^5 cells/mL | 2.67 ± 0.64 10^6 cells/mL | – | –
4 | B2 | – | – | – | – | – | – | – | – | – | – | – | – | – | 15 to 80 | –
5 | B3 | – | – | – | – | – | – | – | – | – | – | – | – | – | 3.5 | –
